These results are taken from patent publication US20250059198A1, “BRM DEGRADING COMPOUNDS AND ASSOCIATED METHODS OF USE” (Arvinas Operations, Inc., priority 2021, published 2025).

The target in this assay is T1, BRM (Homo sapiens, UniProt P51531).
T1 construct: Western Blot Screen of BRM Degradation in SW1573 Cells; endogenous in cells; host or cells: SW1573 cells
The assay can be described thus: BRM degradation (Dmax and DC50) in SW1573 cells, Western blot screen / In-Cell Western screen. The format is cell-based. The settings on record: overnight (18-20 hours) treatment; for Dmax: read-out: Dmax (%)** (% degraded). Put shortly: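 Dmax and DC50 were derived from BRM levels normalised to an alpha-tubulin control, measured by chemiluminescent Western blotting of lysates or by PFA-fixed In-Cell Western on LI-COR Odyssey. SW1573 cells received compound overnight (18–20 h, 0.1% DMSO final).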
On the technique in general: In western blotting, separated proteins are transferred to a membrane and probed.

T1 sequence (P51531 whole entry): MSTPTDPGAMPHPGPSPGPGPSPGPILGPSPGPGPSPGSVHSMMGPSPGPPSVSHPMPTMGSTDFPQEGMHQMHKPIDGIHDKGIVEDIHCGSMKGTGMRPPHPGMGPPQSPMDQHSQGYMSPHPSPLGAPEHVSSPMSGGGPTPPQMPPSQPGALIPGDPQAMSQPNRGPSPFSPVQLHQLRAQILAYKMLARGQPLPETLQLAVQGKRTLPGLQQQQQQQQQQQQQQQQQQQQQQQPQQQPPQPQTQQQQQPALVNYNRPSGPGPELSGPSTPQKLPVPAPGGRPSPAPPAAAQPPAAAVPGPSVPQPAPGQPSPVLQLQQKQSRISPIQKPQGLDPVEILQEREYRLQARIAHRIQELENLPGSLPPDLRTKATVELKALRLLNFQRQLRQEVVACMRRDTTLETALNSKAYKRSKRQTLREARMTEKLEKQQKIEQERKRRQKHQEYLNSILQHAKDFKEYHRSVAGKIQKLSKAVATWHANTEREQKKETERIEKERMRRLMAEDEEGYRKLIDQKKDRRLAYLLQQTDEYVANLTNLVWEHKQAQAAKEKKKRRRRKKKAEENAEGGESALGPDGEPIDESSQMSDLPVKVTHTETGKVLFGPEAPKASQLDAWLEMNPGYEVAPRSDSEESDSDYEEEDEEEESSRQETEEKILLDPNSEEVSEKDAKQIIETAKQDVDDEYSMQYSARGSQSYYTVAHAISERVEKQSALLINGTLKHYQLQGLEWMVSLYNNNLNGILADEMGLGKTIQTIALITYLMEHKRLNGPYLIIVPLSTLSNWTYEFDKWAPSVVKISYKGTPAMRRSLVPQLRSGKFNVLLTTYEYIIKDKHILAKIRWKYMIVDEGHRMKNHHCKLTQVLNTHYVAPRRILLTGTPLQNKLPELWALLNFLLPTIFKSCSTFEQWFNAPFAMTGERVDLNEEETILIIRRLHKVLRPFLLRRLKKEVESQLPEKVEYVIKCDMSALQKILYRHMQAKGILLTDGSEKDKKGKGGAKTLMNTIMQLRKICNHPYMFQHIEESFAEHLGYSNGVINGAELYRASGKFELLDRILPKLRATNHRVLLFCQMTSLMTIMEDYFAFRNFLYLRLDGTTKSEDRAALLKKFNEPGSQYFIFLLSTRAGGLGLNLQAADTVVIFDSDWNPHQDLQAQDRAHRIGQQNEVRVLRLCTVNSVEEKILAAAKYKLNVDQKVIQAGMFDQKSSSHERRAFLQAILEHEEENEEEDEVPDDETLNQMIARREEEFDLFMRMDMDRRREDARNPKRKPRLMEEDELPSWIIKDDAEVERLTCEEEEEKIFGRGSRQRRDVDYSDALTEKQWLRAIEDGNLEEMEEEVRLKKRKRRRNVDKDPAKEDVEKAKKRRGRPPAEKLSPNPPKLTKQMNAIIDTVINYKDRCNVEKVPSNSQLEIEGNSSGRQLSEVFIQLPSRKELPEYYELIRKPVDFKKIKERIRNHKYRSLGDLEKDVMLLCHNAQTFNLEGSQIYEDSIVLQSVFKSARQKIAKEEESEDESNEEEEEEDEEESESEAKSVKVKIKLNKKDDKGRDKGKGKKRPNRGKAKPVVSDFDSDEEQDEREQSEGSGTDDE

Turning to `Cc1ncsc1-c1ccc([C@H](C)NC(=O)[C@@H]2C[C@@H](O)CN2C(=O)[C@@H](c2cc(N3CCC(CN4CCC(O[C@H]5C[C@H](N6CCC([C@@H](C)c7cnn(-c8cc(-c9ccccc9O)nnc8N)c7)CC6)C5)CC4)CC3)no2)C(C)C)cc1` [Compound 74, (2S,4R)-4-hydroxy-N-[(1S)-1-[4-(4-methyl-1,3-thiazol-5-yl)phenyl]ethyl]-1-[(2R)-3-methyl-2-{3-[4-({4-[(1r,3r)-3-{4-[(1R)-1-{1-[3-amino-6-(2-hydroxyphenyl)pyridazin-4-yl]-1H-pyrazol-4-yl}ethyl]piperidin-- yl}cyclobutoxy]piperidin-1-yl}methyl)piperidin-1-yl]-1,2-oxazol-5-yl}butanoyl]pyrrolidine-2-carboxamide], the DC50 – broadly, the midpoint of the concentration-degradation curve – was under 2.5 nM and the Dmax (as a rule, the largest share of the target that was removed) was over 75%.

As for `CC(C)[C@@H](C(=O)N1C[C@H](O)C[C@H]1C(=O)N[C@@H](C)c1ccc(-c2ccnn2C)cc1)c1cc(N2CCC(CN3CCC(Oc4cc(N5CCN(c6cc(-c7ccccc7O)nnc6N)CC5)ccn4)CC3)CC2)no1` [Compound 41, (2S,4R)-1-[(2R)-2-{3-[4-({4-[(4-{4-[3-amino-6-(2-hydroxyphenyl)pyridazin-4-yl]piperazin-1-yl}pyridin-2-yl)oxy]piperidin-1-yl}methyl)piperidin-1-yl]-1,2-oxazol-5-yl}-3-methylbutanoyl]-4-hydroxy-N-[(1S)-1-[4-(1-methyl-1H-pyrazol-5-yl)phenyl]ethyl]pyrrolidine-2-carboxamide], the DC50 was under 2.5 nM and the Dmax was over 75%.

In the case of `Cc1ncsc1-c1ccc([C@H](C)NC(=O)[C@@H]2C[C@@H](O)CN2C(=O)[C@H](c2cc(N3CCC(n4cnc(CN5CCC(O[C@H]6C[C@H](Oc7cc(N8C9CCC8CN(c8cc(-c%10ccccc%10O)nnc8N)C9)ccn7)C6)CC5)c4)CC3)no2)C(C)C)cc1` [Compound 12, (2S,4R)-4-hydroxy-N-[(1S)-1-[4-(4-methyl-1,3-thiazol-5-yl)phenyl]ethyl]-1-[(2S)-3-methyl-2-(3-{4-[4-({4-[(1r,3r)-3-[(4-{3-[3-amino-6-(2-hydroxyphenyl)pyridazin-4-yl]-3,8-diazabicyclo[3.2.1]octan-8-yl}pyridin-2-yl)oxy]cyclobutoxy]piperidin-1-yl}methyl)-1H-imidazol-1-yl]piperidin-1-yl}-1,2-oxazol-5-yl)butanoyl]pyrrolidine-2-carboxamide], the DC50 was at least 30 nM.

As for `Cc1ncsc1-c1ccc([C@H](C)NC(=O)[C@@H]2C[C@@H](O)CN2C(=O)[C@@H](c2cc(N3CCC(O[C@H]4CC[C@@H](Oc5cc(N6C7CCC6CN(c6cc(-c8ccccc8O)nnc6N)C7)ccn5)CC4)CC3)no2)C(C)C)cc1` [Compound 80, (2S,4R)-4-hydroxy-N-[(1S)-1-[4-(4-methyl-1,3-thiazol-5-yl)phenyl]ethyl]-1-[(2R)-3-methyl-2-[3-(4-{[(1s,4s)-4-[(4-{3-[3-amino-6-(2-hydroxyphenyl)pyridazin-4-yl]-3,8-diazabicyclo[3.2.1]octan-8-yl}pyridin-2-yl)oxy]cyclohexyl]oxy}piperidin-1-yl)-1,2-oxazol-5-yl]butanoyl]pyrrolidine-2-carboxamide], the DC50 is under 2.5 nM and the Dmax is over 75%.

As for `Cc1ncsc1-c1ccc([C@H](C)NC(=O)C2C[C@@H](O)CN2C(=O)[C@@H](c2cc(N3CCC(CN4CC[C@@H](Oc5cc(N6C7CCC6CN(c6cc(-c8ccccc8O)nnc6N)C7)ccn5)[C@@H](F)C4)CC3)no2)C(C)C)cc1` (stereo in doubt) [Compound 49, (2S,4R)-1-[(2R)-2-[3-(4-{[(3S,4R)-4-[(4-{3-[3-amino-6-(2-hydroxyphenyl)pyridazin-4-yl]-3,8-diazabicyclo[3.2.1]octan-8-yl}pyridin-2-yl)oxy]-3-fluoropiperidin-1-yl]methyl}piperidin-1-yl)-1,2-oxazol-5-yl]-3-methylbutanoyl]-4-hydroxy-N-[(1S)-1-[4-(4-methyl-1,3-thiazol-5-yl)phenyl]ethyl]pyrrolidine-2-carboxamide], the DC50 was under 2.5 nM and the Dmax was over 75%.

Regarding `CC(C)[C@@H](C(=O)N1C[C@H](O)C[C@H]1C(=O)N[C@@H](C)c1ccc(C#N)cc1)c1cc(N2CCC(OCCN3CCC(Oc4cc(N5CCN(c6cc(-c7ccccc7O)nnc6N)CC5)ccn4)CC3)CC2)no1` [Compound 155, (2S,4R)-1-[(2R)-2-{3-[4-(2-{4-[(4-{4-[3-amino-6-(2-hydroxyphenyl)pyridazin-4-yl]piperazin-1-yl}pyridin-2-yl)oxy]piperidin-1-yl}ethoxy)piperidin-1-yl]-1,2-oxazol-5-yl}-3-methylbutanoyl]-N-[(1S)-1-(4-cyanophenyl)ethyl]-4-hydroxypyrrolidine-2-carboxamide], the DC50 was 10 to 30 nM and the Dmax was over 75%.

On to `Cc1ncsc1-c1ccc([C@H](C)NC(=O)[C@@H]2C[C@@H](O)CN2C(=O)[C@@H](c2cc(N3CCC(CN4CCC(O[C@H]5C[C@H](N6CCC(O[C@H]7CCN(c8cc(-c9ccccc9O)nnc8N)C7)CC6)C5)CC4)CC3)no2)C(C)C)cc1` [Compound 77, (2S,4R)-4-hydroxy-N-[(1S)-1-[4-(4-methyl-1,3-thiazol-5-yl)phenyl]ethyl]-1-[(2R)-3-methyl-2-{3-[4-({4-[(1r,3r)-3-(4-{[(3S)-1-[3-amino-6-(2-hydroxyphenyl)pyridazin-4-yl]pyrrolidin-3-yl]oxy}piperidin-1-yl)cyclobutoxy]piperidin-1-yl}methyl)piperidin-1-yl]-1,2-oxazol-5-yl}butanoyl]pyrrolidine-2-carboxamide], for which the DC50 was under 2.5 nM and the Dmax was over 75%.

Regarding `Cc1ncsc1-c1ccc([C@H](C)NC(=O)[C@@H]2C[C@@H](O)CN2C(=O)[C@@H](c2cc(N3CCC(CN4CC[C@@H](Oc5cc(N6C7CCC6CN(c6cc(-c8ccccc8O)nnc6N)C7)ccn5)[C@H](F)C4)CC3)no2)C(C)C)cc1` [Compound 59, (2S,4R)-1-[(2R)-2-[3-(4-{[(3R,4R)-4-[(4-{3-[3-amino-6-(2-hydroxyphenyl)pyridazin-4-yl]-3,8-diazabicyclo[3.2.1]octan-8-yl}pyridin-2-yl)oxy]-3-fluoropiperidin-1-yl]methyl}piperidin-1-yl)-1,2-oxazol-5-yl]-3-methylbutanoyl]-4-hydroxy-N-[(1S)-1-[4-(4-methyl-1,3-thiazol-5-yl)phenyl]ethyl]pyrrolidine-2-carboxamide], the DC50 lay within 10 to 30 nM and the Dmax is over 75%.

Turning to `Cc1ncsc1-c1ccc([C@H](C)NC(=O)[C@@H]2C[C@@H](O)CN2C(=O)[C@@H](c2cc(N3CCC(CN4CCC(O[C@H]5C[C@H](C(=O)N6CCC(N7C8CCC7CN(c7cc(-c9ccccc9O)nnc7N)C8)CC6)C5)CC4)CC3)no2)C(C)C)cc1` [Compound 76, (2S,4R)-4-hydroxy-N-[(1S)-1-[4-(4-methyl-1,3-thiazol-5-yl)phenyl]ethyl]-1-[(2R)-3-methyl-2-{3-[4-({4-[(1r,3r)-3-(4-{3-[3-amino-6-(2-hydroxyphenyl)pyridazin-4-yl]-3,8-diazabicyclo[3.2.1]octan-8-yl}piperidine-1-carbonyl)cyclobutoxy]piperidin-1-yl}methyl)piperidin-1-yl]-1,2-oxazol-5-yl}butanoyl]pyrrolidine-2-carboxamide], the DC50 fell in the range of 2.5 to 10 nM and the Dmax is over 75%.

Turning to `Cc1ncsc1-c1ccc([C@H](C)NC(=O)[C@@H]2C[C@@H](O)CN2C(=O)[C@@H](c2cc(N3CCC(CN4CCC(O[C@H]5C[C@H](N6CCC([C@H](C)c7cnn(-c8cc(-c9ccccc9O)nnc8N)c7)CC6)C5)CC4)CC3)no2)C(C)C)cc1` [Compound 75, (2S,4R)-4-hydroxy-N-[(1S)-1-[4-(4-methyl-1,3-thiazol-5-yl)phenyl]ethyl]-1-[(2R)-3-methyl-2-{3-[4-({4-[(1r,3r)-3-{4-[(1S)-1-{1-[3-amino-6-(2-hydroxyphenyl)pyridazin-4-yl]-1H-pyrazol-4-yl}ethyl]piperidin-1-yl}cyclobutoxy]piperidin-1-yl}methyl)piperidin-1-yl]-1,2-oxazol-5-yl}butanoyl]pyrrolidine-2-carboxamide], the DC50 is under 2.5 nM and the Dmax was over 75%.

Turning to `CC(C)[C@H](C(=O)N1C[C@H](O)C[C@H]1C(=O)N[C@@H](C)c1ccc(-c2scnc2C#CCOCCOCCOCCOCCOc2cc(N3C4CCC3CN(c3cc(-c5ccccc5O)nnc3N)C4)ccn2)cc1)N1Cc2ccccc2C1=O` [Compound 82, (2S,4R)-N-[(1S)-1-[4-(4-{1-[(4-{3-[3-amino-6-(2-hydroxyphenyl)pyridazin-4-yl]-3,8-diazabicyclo[3.2.1]octan-8-yl}pyridin-2-yl)oxy]-3,6,9,12-tetraoxapentadec-14-yn-15-yl}-1,3-thiazol-5-yl)phenyl]ethyl]-4-hydroxy-1-[(2R)-3-methyl-2-(1-oxo-2,3-dihydro-1H-isoindol-2-yl)butanoyl]pyrrolidine-2-carboxamide], the DC50 is at least 30 nM.

Turning to `Cc1ncsc1-c1ccc([C@H](C)NC(=O)[C@@H]2C[C@@H](O)CN2C(=O)[C@@H](c2cc(N3CCC(CN4CCC5(CC4)CC(N4CCO[C@@H](C(=O)N6C7CCC6CN(c6cc(-c8ccccc8O)nnc6N)C7)C4)C5)CC3)no2)C(C)C)cc1` [Compound 62, (2S,4R)-1-[(2R)-2-{3-[4-({2-[(2R)-2-{3-[3-amino-6-(2-hydroxyphenyl)pyridazin-4-yl]-3,8-diazabicyclo[3.2.1]octane-8-carbonyl}morpholin-4-yl]-7-azaspiro[3.5]nonan-7-yl}methyl)piperidin-1-yl]-1,2-oxazol-5-yl}-3-methylbutanoyl]-4-hydroxy-N-[(1S)-1-[4-(4-methyl-1,3-thiazol-5-yl)phenyl]ethyl]pyrrolidine-2-carboxamide], the DC50 was under 2.5 nM and the Dmax is over 75%.
